The target of one series is p38 MAPKα (Homo sapiens (Human), UniProt Q16539). The series can be described thus: p38 MAPKα enzyme inhibition (FRET, Z-LYTE). In kind it is biochemical.
In the next series the target is GSK3α (Homo sapiens (Human), UniProt P49840). The series can be described thus: GSK 3α enzyme inhibition (FRET, Z-LYTE). In kind it is biochemical. In short, it runs like this:
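Phosphorylation was read as the donor (coumarin) to acceptor (fluorescein) ratio after a 1 hr protease step destroying non-phosphorylated peptide. Before this, compound (4–0.004 μg/mL stocks) sat 2 hr at RT with GSK3α (500 ng/mL stock), followed by 1 hr kinase reaction with 8 μM peptide and 40 μM ATP stocks.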

The next series has as its system d-U937 cells. As to the kind of experiment: Cell viability: MTT assay. In kind it is cell-based, human. The note with it: 1 μg/mL. The method in brief:
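MTT read-out (1 h, absorbance 550 nm) on d-U937 cells after pre-incubation with 1 or 10 μg/mL compound under two regimes: 4 h, 5% FCS, or 24 h, 10% FCS RPMI1640. Values are percent loss of viability relative to vehicle (0.5% DMSO), so increases are reported as negative.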

The subject of series [1] is LPS-induced IL-8 release in d-U937 cells. The series can be described thus: LPS-induced IL-8 release in d-U937 cells. The class given is cell-based. Particulars: Homo sapiens, dU937, read-out: LPS Induced Release of Cytokine in d-937 Cells IL-8 IC50. In short, it runs like this:
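Human monocytic U937 cells were differentiated to macrophage-type cells with PMA (100 ng/mL) for 48 to 72 hr, pre-treated with test compound for 2 hr, then stimulated 4 hr with E. coli O111:B4 LPS (0.1 μg/mL). Supernatant TNFα and IL-8 were measured by sandwich ELISA; REC50 came from concentration-response curves.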

The subject of series [2] is Poly I:C-induced ICAM-1 expression in BEAS2B cells. The series can be described thus: Poly I:C-induced ICAM-1 expression in BEAS2B cells. In kind it is cell-based. The note with it: Homo sapiens, BEAS-2B, read-out: Poly IC induced ICAM1 in BEAS2B IC50. The method in brief:
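Cell-based ELISA read at 450 nm minus 655 nm, divided by crystal violet OD595 to normalize for cell number, gave ICAM-1 levels. Readout was taken 18 hr after poly I:C (1 μg/mL, Oligofectamine) transfection of human bronchial BEAS2B cells pretreated 2 hr with test compound.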

The target in a further series is cSrc (Homo sapiens (Human), UniProt P12931). As to the kind of experiment: c-Src enzyme inhibition (FRET, Z-LYTE). The class given is biochemical. The method in brief: (§1)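 Z-LYTE FRET kinase assay: enzyme (3000 or 2000 ng/mL stock, respectively) preincubated 2 h at RT with compound (4–0.004 μg/mL stocks), then FRET peptide plus ATP (800 μM stock for c-Src, 60 μM for Syk) added for 1 h. Protease development 1 h; phosphorylation from coumarin/fluorescein emission ratio.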
Chain of cSrc (P12931 whole entry, looked up): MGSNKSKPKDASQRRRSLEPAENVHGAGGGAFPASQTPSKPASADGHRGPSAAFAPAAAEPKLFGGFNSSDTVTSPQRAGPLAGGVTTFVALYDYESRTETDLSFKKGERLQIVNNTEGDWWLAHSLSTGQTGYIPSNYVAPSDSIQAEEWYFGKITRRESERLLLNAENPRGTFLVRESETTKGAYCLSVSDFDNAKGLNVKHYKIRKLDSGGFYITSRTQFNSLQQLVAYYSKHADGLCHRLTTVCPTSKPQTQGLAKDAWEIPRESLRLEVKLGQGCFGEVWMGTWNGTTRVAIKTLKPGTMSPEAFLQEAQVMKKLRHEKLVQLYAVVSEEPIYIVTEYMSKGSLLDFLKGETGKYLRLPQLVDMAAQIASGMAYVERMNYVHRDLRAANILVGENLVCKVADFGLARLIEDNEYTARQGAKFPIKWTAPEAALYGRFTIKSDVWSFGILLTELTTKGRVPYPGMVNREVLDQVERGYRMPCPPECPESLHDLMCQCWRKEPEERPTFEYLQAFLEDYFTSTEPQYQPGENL

For another series, the target named is Syk (Homo sapiens (Human), UniProt P43405). The series can be described thus: Syk enzyme inhibition (FRET, Z-LYTE). In kind it is biochemical. The method in brief: as §1
The test system of series [3] is LPS-induced TNFα release in d-U937 cells. The series can be described thus: LPS-induced TNFα release in d-U937 cells. In kind it is cell-based. Particulars: Homo sapiens, dU937, relative to 10 μg/mL BIRB796, read-out: LPS Induced Release of Cytokine in d-937 Cells TNFα REC50. The procedure:
U937 cells, a human monocytic cell line, are differentiated into macrophage-type cells by incubation with PMA (100 ng/mL) for 48 to 72 hr. Cells are pre-incubated with final concentrations of test compound for 2 hr and are then stimulated with LPS (0.1 μg/mL) (from E. coli: O111:B4, Sigma) for 4 hr. The supernatant is collected for determination of TNFα and IL-8 concentrations by sandwich ELISA (Duo-set, R&D systems). […] The relative 50% effective concentration (REC50) is determined from the resultant concentration-response curve. The inhibition of IL-8 production is calculated at each concentration of test compound by comparison with vehicle control. […] (b) LPS-Induced TNFα/IL-8 Release in PBMC Cells

Each structure is given as a SMILES string. A value given as a limit tells only on which side of the number the result lay.

Chain of p38 MAPKα (Q16539 whole entry): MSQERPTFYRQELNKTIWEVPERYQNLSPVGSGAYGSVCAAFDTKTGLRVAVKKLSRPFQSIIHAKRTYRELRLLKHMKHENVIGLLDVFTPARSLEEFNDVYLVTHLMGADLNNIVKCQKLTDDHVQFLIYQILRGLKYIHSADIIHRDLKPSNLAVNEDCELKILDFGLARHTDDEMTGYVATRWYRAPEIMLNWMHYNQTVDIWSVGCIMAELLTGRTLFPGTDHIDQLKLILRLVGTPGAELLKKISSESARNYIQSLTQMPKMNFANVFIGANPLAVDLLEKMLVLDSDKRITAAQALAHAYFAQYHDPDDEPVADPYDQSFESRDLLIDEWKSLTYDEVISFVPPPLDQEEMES
Chain of GSK3α (P49840 whole entry): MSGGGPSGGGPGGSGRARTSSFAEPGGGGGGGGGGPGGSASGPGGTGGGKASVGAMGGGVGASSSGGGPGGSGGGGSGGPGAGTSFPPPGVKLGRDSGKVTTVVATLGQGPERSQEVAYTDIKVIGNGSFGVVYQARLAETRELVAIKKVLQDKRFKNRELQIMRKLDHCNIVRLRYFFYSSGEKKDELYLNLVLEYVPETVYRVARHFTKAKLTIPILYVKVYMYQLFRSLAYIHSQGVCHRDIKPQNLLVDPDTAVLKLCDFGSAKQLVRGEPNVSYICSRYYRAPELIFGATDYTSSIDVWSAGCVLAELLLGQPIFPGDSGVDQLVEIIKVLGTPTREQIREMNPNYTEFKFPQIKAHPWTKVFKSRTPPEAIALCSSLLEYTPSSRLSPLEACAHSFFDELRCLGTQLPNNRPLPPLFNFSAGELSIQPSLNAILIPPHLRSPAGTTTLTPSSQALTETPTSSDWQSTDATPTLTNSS

Consider `CC(C)(C)c1cc(NC(=O)Nc2ccc(Oc3ccnc(Nc4ccc5[nH]c(=O)oc5c4)n3)c3ccccc23)n(-c2ccc(OCCN3CCOCC3)cc2)n1` [Example 77, 1-(3-(tert-butyl)-1-(4-(2-morpholinoethoxy)phenyl)-1H-pyrazol-5-yl)-3-(4-((2-((2-oxo-2,3-dihydrobenzo[d]oxazol-6-yl)amino)pyrimidin-4-yl)oxy)naphthalen-1-yl)urea], for which the IC50 on p38 MAPKα was 417 nM; against GSK3α, 2290 nM; in series [1], 3.1 nM; in series [2], 8.6 nM; on cSrc, 27 nM; at Syk, 93 nM. In addition, the “MTT Assay Cell viability at time point in d-U937 cells 4 h” value with d-U937 cells is “−ve (−ve and +ve indicate that the value is below and above respectively, the no significant effect threshold, defined as 30% inhibition at 1 μg/mL at the time point indicated.)”. Further, the “MTT Assay Cell viability at time point in d-U937 cells 24 h” value in the series with d-U937 cells is “−ve (−ve and +ve indicate that the value is below and above respectively, the no significant effect threshold, defined as 30% inhibition at 1 μg/mL at the time point indicated.)”. Further, in series [3], the EC50 came out at 3.5 nM.
With `CC(C)(C)c1cc(NC(=O)Nc2ccc(Oc3ccnc(Nc4ccc5c(c4)OCCO5)n3)c3ccccc23)n(-c2ccc(OCCN3CCOCC3)cc2)n1` [Example 11, 1-(3-(tert-Butyl)-1-(4-(2-morpholinoethoxy)phenyl)-1H-pyrazol-5-yl)-3-(4-((2-((2,3-dihydrobenzo[b][1,4]dioxin-6-yl)amino)pyrimidin-4-yl)oxy)naphthalen-1-yl)urea], the IC50 turned out to be 39 nM against p38 MAPKα; 848 nM on GSK3α; 25.2 nM in series [1]; 7.9 nM in series [2]; 6 nM at cSrc; 15 nM against Syk. Also, the “MTT Assay Cell viability at time point in d-U937 cells 4 h” value in the series on d-U937 cells is “−ve (−ve and +ve indicate that the value is below and above respectively, the no significant effect threshold, defined as 30% inhibition at 1 μg/mL at the time point indicated.)”. Further, the “MTT Assay Cell viability at time point in d-U937 cells 24 h” value in the series with d-U937 cells was “−ve (−ve and +ve indicate that the value is below and above respectively, the no significant effect threshold, defined as 30% inhibition at 1 μg/mL at the time point indicated.)”. The EC50 in series [3] stood at 8.5 nM.
As to `Cc1cc(Nc2nccc(Oc3ccc(NC(=O)Nc4cc(C(C)(C)C)nn4-c4ccc(=O)n(CCO)c4)c4ccccc34)n2)cc2cn[nH]c12` [Example 87, 1-(3-(tert-butyl)-1-(1-(2-hydroxyethyl)-6-oxo-1,6-dihydropyridin-3-yl)-1H-pyrazol-5-yl)-3-(4-((2-((7-methyl-1H-indazol-5-yl)amino)pyrimidin-4-yl)oxy)naphthalen-1-yl)urea], the half-inhibitory concentration (IC50) at p38 MAPKα came out at 45 nM; on GSK3α, 1100 nM; in series [1] it was 2.3 nM; in series [2], 1 nM; on cSrc it was 2 nM; against Syk it was 4 nM. For the same compound, the “MTT Assay Cell viability at time point in d-U937 cells 4 h” value in the series with d-U937 cells is “−ve (−ve and +ve indicate that the value is below and above respectively, the no significant effect threshold, defined as 30% inhibition at 1 μg/mL at the time point indicated.)”. For the same compound, the “MTT Assay Cell viability at time point in d-U937 cells 24 h” value with d-U937 cells is “−ve (−ve and +ve indicate that the value is below and above respectively, the no significant effect threshold, defined as 30% inhibition at 1 μg/mL at the time point indicated.)”. The EC50 in series [3] is 1.7 nM.
Take `CC(C)c1cc(NC(=O)Nc2ccc(Oc3ccnc(Nc4ccc5[nH]ncc5c4)n3)c3ccccc23)n(-c2cccc(OCCN3CCOCC3)c2)n1` [Example 53, 1-(4-((2-((1H-indazol-5-yl)amino)pyrimidin-4-yl)oxy)naphthalen-1-yl)-3-(3-isopropyl-1-(3-(2-morpholinoethoxy)phenyl)-1H-pyrazol-5-yl)urea]: the IC50 at p38 MAPKα was found to be 8 nM; against GSK3α, 11300 nM; in series [1], 173 nM; in series [2], 38.5 nM; against cSrc, 4 nM; on Syk it was 3 nM. Further, the “MTT Assay Cell viability at time point in d-U937 cells 4 h” value with d-U937 cells was “−ve (−ve and +ve indicate that the value is below and above respectively, the no significant effect threshold, defined as 30% inhibition at 1 μg/mL at the time point indicated.)”. For the same compound, in the series with d-U937 cells, the “MTT Assay Cell viability at time point in d-U937 cells 24 h” value was “−ve (−ve and +ve indicate that the value is below and above respectively, the no significant effect threshold, defined as 30% inhibition at 1 μg/mL at the time point indicated.)”. For the same compound, the EC50 in series [3] amounted to 49.1 nM.
For `Cc1ccc(-n2nc(C(C)(C)C)cc2NC(=O)Nc2ccc(Oc3ccnc(Nc4cc(Cl)c5[nH]ncc5c4)n3)c3ccccc23)cc1` [Example 28, 1-(3-(tert-butyl)-1-(p-tolyl)-1H-pyrazol-5-yl)-3-(4-((2-((7-chloro-1H-indazol-5-yl)amino)pyrimidin-4-yl)oxy)naphthalen-1-yl)urea], the IC50 was above 1520 nM against p38 MAPKα; above 1520 nM on GSK3α; 1.7 nM in series [1]; 3.4 nM in series [2]; 164 nM on cSrc; 711 nM at Syk. The “MTT Assay Cell viability at time point in d-U937 cells 4 h” value with d-U937 cells was “−ve (−ve and +ve indicate that the value is below and above respectively, the no significant effect threshold, defined as 30% inhibition at 1 μg/mL at the time point indicated.)”. Also, the “MTT Assay Cell viability at time point in d-U937 cells 24 h” value in the series with d-U937 cells was “−ve (−ve and +ve indicate that the value is below and above respectively, the no significant effect threshold, defined as 30% inhibition at 1 μg/mL at the time point indicated.)”. In addition, in series [3], the EC50 stood at 1.6 nM.
Regarding `Cc1nc2cc(Nc3nccc(Oc4ccc(NC(=O)Nc5cc(C(C)(C)C)nn5-c5ccc(OCCN6CCOCC6)cc5)c5ccccc45)n3)ccc2[nH]1` [Example 75, 1-(3-(tert-butyl)-1-(4-(2-morpholinoethoxy)phenyl)-1H-pyrazol-5-yl)-3-(4-((2-((2-methyl-1H-benzo[d]imidazol-6-yl)amino)pyrimidin-4-yl)oxy)naphthalen-1-yl)urea], the IC50 against p38 MAPKα was 36 nM; at GSK3α it was 4950 nM; in series [1] it was 43.9 nM; in series [2], 16.3 nM; on cSrc, below 1 nM; against Syk, below 1 nM. Further, the “MTT Assay Cell viability at time point in d-U937 cells 4 h” value with d-U937 cells was “−ve (−ve and +ve indicate that the value is below and above respectively, the no significant effect threshold, defined as 30% inhibition at 1 μg/mL at the time point indicated.)”. In addition, in the series on d-U937 cells, the “MTT Assay Cell viability at time point in d-U937 cells 24 h” value was “−ve (−ve and +ve indicate that the value is below and above respectively, the no significant effect threshold, defined as 30% inhibition at 1 μg/mL at the time point indicated.)”. In addition, the EC50 in series [3] came out at 14.2 nM.
For `Cc1n[nH]c2ccc(Nc3nccc(Oc4ccc(NC(=O)Nc5cc(C(C)(C)C)nn5-c5ccc(OCCN6CCOCC6)cc5)c5ccccc45)n3)cc12` [Example 72], the IC50 against p38 MAPKα turned out to be 13 nM; on GSK3α it was 2290 nM; in series [1], 1.7 nM; in series [2], 165 nM; against cSrc it was 2 nM; against Syk it was 3 nM. Also, in the series on d-U937 cells, the “MTT Assay Cell viability at time point in d-U937 cells 4 h” value is “−ve (−ve and +ve indicate that the value is below and above respectively, the no significant effect threshold, defined as 30% inhibition at 1 μg/mL at the time point indicated.)”. The “MTT Assay Cell viability at time point in d-U937 cells 24 h” value with d-U937 cells is “−ve (−ve and +ve indicate that the value is below and above respectively, the no significant effect threshold, defined as 30% inhibition at 1 μg/mL at the time point indicated.)”. The EC50 in series [3] stood at 1.6 nM.

One may read the IC50 as the concentration that gives 50% inhibition.
